Results published in publication PMC9424906 (Frontiers in Pharmacology, 2022).
≈ marks a conversion by molar mass, not a printed value. Entries after “also recorded” stand apart in the source; their conditions may differ.

How the values were obtained:
[1] = Pharmacokinetics in Beagle dogs; format: in vivo, dog; settings: for half-life: plasma
Description: Adult male C57BL/6 mice and Sprague Dawley rats were purchased from Charles River Laboratory (Wilmington, MA). PK studies for mice and rats were conducted at NIH animal facility (Bethesda, MD). In-life dog and monkey PK studies were conducted at Absorption System (San Diego, CA) and Frontage Labs (Concord, OH), respectively. Dogs and monkeys were fasted overnight prior to dose administrations. All experimental procedures were reviewed and approved by the Animal Care and Use Committee (ACUC) of the NIH Division of Veterinary Resources (DVR) or CRO labs for in-life studies.
The dosing volume was 1.0 mL/kg for both groups. Plasma (both IV and PO groups) and urine (IV group) samples were collected over a period of 48 h.
Blood samples from all groups and species were collected in K2EDTA tubes and stored on wet ice pending processing. Blood was centrifuged at 2200 g at 4°C for 10 min to isolate plasma. All samples were stored at -80°C until analysis.
Phoenix WinNonlin, version 8.1 (Certara, St. Louis, MO), was used to perform PK analysis with the non-compartmental approach (Models 200 and 201 for PO and IV datasets). The area under the plasma concentration vs. time curve (AUC) was calculated using the linear trapezoidal method. The terminal rate constant (λ) was obtained from the slope of at least three data points of the apparent terminal phase of the log-linear plasma concentration vs. time curve when available. AUC0–∞ was estimated as the sum of the AUC0–t (where t is the time of the last measurable concentration) and Ct/λ. The apparent terminal half-life (t½) was calculated as 0.693/λ. Bioavailability (F) was calculated using ratios of dose normalized AUC (AUC/Dose) obtained from PO and IV PK studies.

[2] = 7-days dose range finding study in rats; settings: oral, 7 days, 1,500 mg/kg/day
[3] = Liver microsomal stability, SD rat; format: in vitro ADME; settings: Sprague-Dawley, liver microsomes, pH 7.4, 0.5 mg/mL
Description: (§1) Samples were analyzed using UPLC-MS/MS.

physchem = settings: for solubility thermodynamic: thermodynamic from solid
in vitro = settings: human, Caco-2, pH 7.4
MDR1 = experiment: in vitro; settings: human, Caco-2, pH 7.4
BCRP = experiment: in vitro; settings: human, Caco-2, pH 7.4
CNT1 = target: T1, CNT1 (Homo sapiens, UniProt O00337); experiment: Nucleoside transporter uptake, CNT1-transfected MDCK cells; format: in vitro ADME
T1 construct: expressed in transfected cells; host or cells: MDCK-II
T1 sequence (O00337 1-649): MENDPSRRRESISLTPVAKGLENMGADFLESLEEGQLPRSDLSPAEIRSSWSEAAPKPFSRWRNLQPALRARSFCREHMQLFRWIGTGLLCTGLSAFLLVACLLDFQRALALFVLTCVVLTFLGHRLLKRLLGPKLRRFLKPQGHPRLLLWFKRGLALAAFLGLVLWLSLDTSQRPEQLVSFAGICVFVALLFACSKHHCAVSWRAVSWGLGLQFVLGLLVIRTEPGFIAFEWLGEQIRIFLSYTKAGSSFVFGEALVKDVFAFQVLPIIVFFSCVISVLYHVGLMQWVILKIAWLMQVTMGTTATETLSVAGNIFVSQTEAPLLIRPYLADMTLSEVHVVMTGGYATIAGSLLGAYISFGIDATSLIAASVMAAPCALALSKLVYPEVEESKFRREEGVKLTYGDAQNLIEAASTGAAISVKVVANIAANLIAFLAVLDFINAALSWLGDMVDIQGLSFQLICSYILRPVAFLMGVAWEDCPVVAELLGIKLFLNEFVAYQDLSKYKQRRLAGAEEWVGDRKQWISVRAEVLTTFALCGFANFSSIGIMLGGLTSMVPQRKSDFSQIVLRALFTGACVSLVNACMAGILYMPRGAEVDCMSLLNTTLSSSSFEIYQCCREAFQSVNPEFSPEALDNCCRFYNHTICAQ
Text: Each condition was run in triplicate.

[4] = Liver microsomal stability, CD-1 mouse; format: in vitro ADME; settings: liver microsomes, pH 7.4, 0.5 mg/mL
Description: as §1

[5] = male, beagle, dog, in vivo, iv, 2 mg/kg
[6] = male, beagle, dog, in vivo, po, 5 mg/kg

N#C[C@@]1(c2ccc3c(N)ncnn23)O[C@H](CO)[C@@H](O)[C@H]1O [GS-441524]
t1/2 ([1]; Dog, PO 5 mg/kg, 5 mg/kg): 4.1 ± 1.1 h
Vd ([1]; male, Beagle, dog, in vivo, iv, 2 mg/kg, Vdss): 0.9 L/kg
half-life ([1]; male, Beagle, dog, iv, 2 mg/kg, IV 2 mg/kg): ~4 h
half-life ([1]; male, Beagle, dog, po, 5 mg/kg, PO 5 mg/kg): ~4 h
Mean urinary excretion of unchanged parent drug [1, 5]: ~64%
clearance [1, 5]: 4.1 ± 0.7 mL/min/kg
Cmax [1, 6]: 6010 ng/mL
Tmax [1, 6]: 0.28 ± 0.19 h
bioavailability [1, 6]: 85 ± 17%
AUC(0-inf) ([1]; male, beagle, in vivo, Dog, PO 5 mg/kg): 19000 ng·h/mL
Tolerability at maximum feasible dose [2]: well tolerated
half-life at 1 µM [3]: 1.02 ± 0.15 h
solubility thermodynamic (physchem; pH 1.6, simulated gastric fluid): > 1000 µg/mL
solubility thermodynamic (physchem; pH 2, aqueous buffer): > 1000 µg/mL
solubility (physchem; pH 5): 35 to 52 µg/mL (≈ 120 to 179 µM)
solubility thermodynamic (physchem; pH 5, aqueous buffer): 52 µg/mL (≈ 179 µM)
solubility thermodynamic (physchem; pH 5.8, fessif): 52 µg/mL (≈ 179 µM)
solubility thermodynamic (physchem; pH 6.5, fassif): 35 µg/mL (≈ 120 µM)
solubility thermodynamic (physchem; pH 7.4, aqueous buffer): 47 µg/mL (≈ 161 µM)
Papp A→B at 2 h, 5 µM (in vitro): 0.099 ×10⁻⁶ cm/s
Papp B→A at 2 h, 5 µM (in vitro): 0.971 ×10⁻⁶ cm/s
Papp A→B at 2 h, 5 µM (MDR1): 0.16 ×10⁻⁶ cm/s
Papp B→A at 2 h, 5 µM (MDR1): 0.79 ×10⁻⁶ cm/s
Papp A→B at 2 h, 5 µM (BCRP): 0.229 ×10⁻⁶ cm/s
Papp B→A at 2 h, 5 µM (BCRP): 0.267 ×10⁻⁶ cm/s
Substrate of CNT1 (CNT1): not a substrate; also recorded: unlikely to be a substrate
Transporter uptake rate (CNT1; CNT1, 10 μM, LOQ = 0.222 pmol/min/cm^2): BLQ
Difference in uptake compared to control cells (CNT1; CNT1-transfected cells): less than 2 fold
half-life at 1 µM [4]: 1.3 ± 0.05 h
